Data published in patent US10918640B2, “Azetidine derivatives” (Vernalis (R&D) Ltd., priority 2008, dated 2021).

Test system: carrageenan-induced thermal hypersensitivity
Experiment: Rat carrageenan induced thermal hyperalgesia model of inflammatory pain
Type: in vivo
Experimental: Rat Carrageenan Induced Thermal Hyperalgesia Model of Inflammatory Pain.
Male Wistar rats were assessed for thermal pain sensitivity by applying a focused light beam onto the hind paws and recording the time to paw withdrawal, before and after local intraplantar administration of carrageenan. After 3 h. thermal pain sensitivity was reassessed in treated and untreated hind paws prior to dosing with test compound or vehicle. Indomethacin was administered as a positive control.
Male Sprague Dawley rats were tail-marked, and acclimatized to the plantar boxes on 3 separate occasions (6, 5 and 1 day prior to the test day) for at least 5 min on each occasion. […] The latency to withdraw both left and right hindpaws from the heat source was determined on 2 occasions (3 min apart). The mean across the 2 challenges was recorded as the baseline for each animal. Rats 18 and 30 were not used in the study as they had very high baseline readings, and they were replaced by 61 and 63. […]
For example, the compound of Example 13 above was tested as follows: Rats were dosed with intraplantar carrageenan at t=0; the compound of Example 13 (1, 3 & 10 mg/kg po) or vehicle (5% EtOH: 95% (1% methylcellulose in water) at t=2 h; indomethacin (10 mg/kg ip) or vehicle at t=2.5 h and thermal sensitivity was measured at t=3 h. Thus all rats received both oral and ip dosing.

## O=C(Nc1cccnn1)N1CC(Oc2ccc(-c3ccccc3)cn2)C1 [Example 13, 3-(5-Phenyl-pyridin-2-yloxy)-azetidine-1-carboxylic acid pyridazin-3-ylamide]
1, 3, 10 mg/kg p.o., rat
  pain sensitivity relative to normal levels: did not reduce pain sensitivity to below normal levels
At 3 and 10 mg/kg doses p.o., one way ANOVA followed by Newman-Keuls post hoc tests
  statistical significance of inhibition cf. vehicle/carrageenan group: reached statistical significance
